According to the supplement of paper PMC10307832:

Legend:
Test in all cases: relative viability (nuclei count vs DMSO), 5 days (fraction); higher = more cells survive
[1] = tested on: NCI-H1792
Outline: (§1)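 Relative viability equals treated-well nuclei counts divided by vehicle-well nuclei counts. Counts came from 4× images of lung cancer cell lines grown in 1536-well plates for 5 days after pin-tool dosing on the day after seeding. Dosing used one drug alone or a fixed anchor-drug dose plus five library-drug doses (not always all listed) in √10 steps, and values are medians of duplicate plates.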

[2] = tested on: SK-MES-1
Outline: as §1

[3] = tested on: NCI-H2170
Outline: as §1

[4] = tested on: NCI-H727
Outline: as §1

[5] = tested on: EMC-BAC-2
Outline: as §1

[6] = tested on: NCI-H2228
Outline: as §1

[7] = tested on: PC-3 [JPC-3]
Outline: as §1

[8] = tested on: NCI-H2009
Outline: as §1

[9] = tested on: LK-2
Outline: as §1

[10] = tested on: NCI-H1944
Outline: as §1

[11] = tested on: NCI-H322M
Outline: as §1

[12] = tested on: HARA
Outline: as §1

[13] = tested on: NCI-H1993
Outline: as §1

[14] = tested on: NCI-H596
Outline: as §1

[15] = tested on: HOP-62
Outline: as §1

[16] = tested on: NCI-H3122
Outline: as §1

[17] = tested on: A-427
Outline: as §1

[18] = tested on: ABC-1
Outline: as §1

[19] = tested on: SW 1573
Outline: as §1

[20] = tested on: LXF-289
Outline: as §1

Work on `CCN(CC)CCCCNc1ncc2cc(-c3cc(OC)cc(OC)c3)c(NC(=O)NC(C)(C)C)nc2n1` + CS(=O)(=O)CCNCc1ccc(-c2ccc3ncnc(Nc4ccc(OCc5cccc(F)c5)c(Cl)c4)c3c2)o1 [Lapatinib] (partner 2 µM) yielded a relative viability ([1]; first compound 0.01 µM) of 0.97, a relative viability ([1]; first compound 0.03162 µM) of 0.886 and a relative viability ([1]; first compound 0.1 µM) of 1.21. The relative viability ([1]; first compound 0.3162 µM) was 1.64, the relative viability ([1]; first compound 1 µM) was 0.433 and the relative viability ([2]; first compound 0.01 µM) was 0.518. The relative viability ([2]; first compound 0.03162 µM) was 0.456, the relative viability ([2]; first compound 0.1 µM) was 0.542 and the relative viability ([2]; first compound 0.3162 µM) was 0.455. The relative viability ([2]; first compound 1 µM) was 0.354, the relative viability ([3]; first compound 0.01 µM) was 0.282 and the relative viability ([3]; first compound 0.03162 µM) was 0.269. For the same molecule, the relative viability ([3]; first compound 0.1 µM) was 0.298, the relative viability ([3]; first compound 0.3162 µM) was 0.271 and the relative viability ([3]; first compound 1 µM) was 0.276. It also gave a relative viability ([4]; first compound 0.01 µM) of 0.705, a relative viability ([4]; first compound 0.03162 µM) of 0.743 and a relative viability ([4]; first compound 0.1 µM) of 0.944. For the same molecule, the relative viability ([4]; first compound 0.3162 µM) was 0.967, the relative viability ([4]; first compound 1 µM) was 1.08 and the relative viability ([5]; first compound 0.01 µM) was 0.946. For the same molecule, the relative viability ([5]; first compound 0.03162 µM) was 0.941, the relative viability ([5]; first compound 0.1 µM) was 0.961 and the relative viability ([5]; first compound 0.3162 µM) was 0.999. It also gave a relative viability ([5]; first compound 1 µM) of 0.859, a relative viability ([6]; first compound 0.01 µM) of 1.06 and a relative viability ([6]; first compound 0.03162 µM) of 1.35. The relative viability ([6]; first compound 0.1 µM) was 1.19, the relative viability ([6]; first compound 0.3162 µM) was 1.22 and the relative viability ([6]; first compound 1 µM) was 0.74. The relative viability ([7]; first compound 0.01 µM) was 0.479, the relative viability ([7]; first compound 0.03162 µM) was 0.453 and the relative viability ([7]; first compound 0.1 µM) was 0.519. The relative viability ([7]; first compound 0.3162 µM) was 0.538, the relative viability ([7]; first compound 1 µM) was 0.446 and the relative viability ([8]; first compound 0.01 µM) was 0.898. It also gave a relative viability ([8]; first compound 0.03162 µM) of 0.971, a relative viability ([8]; first compound 0.1 µM) of 0.956 and a relative viability ([8]; first compound 0.3162 µM) of 0.932. The relative viability ([8]; first compound 1 µM) was 1.43, the relative viability ([9]; first compound 0.01 µM) was 0.98 and the relative viability ([9]; first compound 0.03162 µM) was 0.814. The relative viability ([9]; first compound 0.1 µM) was 0.966, the relative viability ([9]; first compound 0.3162 µM) was 0.645 and the relative viability ([9]; first compound 1 µM) was 0.303. The relative viability ([10]; first compound 0.01 µM) was 0.903, the relative viability ([10]; first compound 0.03162 µM) was 0.789 and the relative viability ([10]; first compound 0.1 µM) was 0.996. For the same molecule, the relative viability ([10]; first compound 0.3162 µM) was 0.836, the relative viability ([10]; first compound 1 µM) was 0.676 and the relative viability ([11]; first compound 0.01 µM) was 0.549. For the same molecule, the relative viability ([11]; first compound 0.03162 µM) was 0.584, the relative viability ([11]; first compound 0.1 µM) was 0.598 and the relative viability ([11]; first compound 0.3162 µM) was 0.619. For the same molecule, the relative viability ([11]; first compound 1 µM) was 0.528, the relative viability ([12]; first compound 0.01 µM) was 0.833 and the relative viability ([12]; first compound 0.03162 µM) was 0.469. The relative viability ([12]; first compound 0.1 µM) was 0.764, the relative viability ([12]; first compound 0.3162 µM) was 0.581 and the relative viability ([12]; first compound 1 µM) was 0.227. For the same molecule, the relative viability ([13]; first compound 0.01 µM) was 0.85, the relative viability ([13]; first compound 0.03162 µM) was 0.719 and the relative viability ([13]; first compound 0.1 µM) was 0.774. For the same molecule, the relative viability ([13]; first compound 0.3162 µM) was 0.785, the relative viability ([13]; first compound 1 µM) was 0.738 and the relative viability ([14]; first compound 0.01 µM) was 0.967. For the same molecule, the relative viability ([14]; first compound 0.03162 µM) was 1.04, the relative viability ([14]; first compound 0.1 µM) was 1.11 and the relative viability ([14]; first compound 0.3162 µM) was 0.977. The relative viability ([14]; first compound 1 µM) was 0.854, the relative viability ([15]; first compound 0.01 µM) was 1.01 and the relative viability ([15]; first compound 0.03162 µM) was 1.16. For the same molecule, the relative viability ([15]; first compound 0.1 µM) was 1.19, the relative viability ([15]; first compound 0.3162 µM) was 1.09 and the relative viability ([15]; first compound 1 µM) was 1.33. For the same molecule, the relative viability ([16]; first compound 0.01 µM) was 0.997, the relative viability ([16]; first compound 0.03162 µM) was 1.04 and the relative viability ([16]; first compound 0.1 µM) was 1.16. The relative viability ([16]; first compound 0.3162 µM) was 1.07, the relative viability ([16]; first compound 1 µM) was 1 and the relative viability ([17]; first compound 0.01 µM) was 1.15. It also gave a relative viability ([17]; first compound 0.03162 µM) of 0.971, a relative viability ([17]; first compound 0.1 µM) of 1.08 and a relative viability ([17]; first compound 0.3162 µM) of 1.1. It also gave a relative viability ([17]; first compound 1 µM) of 0.899, a relative viability ([18]; first compound 0.01 µM) of 1.33 and a relative viability ([18]; first compound 0.03162 µM) of 1.11. The relative viability ([18]; first compound 0.1 µM) was 1.22, the relative viability ([18]; first compound 0.3162 µM) was 1.34 and the relative viability ([18]; first compound 1 µM) was 1.22. The relative viability ([19]; first compound 0.01 µM) was 1.11, the relative viability ([19]; first compound 0.03162 µM) was 1.1 and the relative viability ([19]; first compound 0.1 µM) was 1.19. For the same molecule, the relative viability ([19]; first compound 0.3162 µM) was 0.978, the relative viability ([19]; first compound 1 µM) was 1.12 and the relative viability ([20]; first compound 0.01 µM) was 0.893. The relative viability ([20]; first compound 0.03162 µM) was 0.944, the relative viability ([20]; first compound 0.1 µM) was 0.941 and the relative viability ([20]; first compound 0.3162 µM) was 0.865. The relative viability ([20]; first compound 1 µM) was 0.599.
